The text below walks through data of patent US7160911B2, “Diarylcycloalkyl derivatives, process for their preparation and their use as pharmaceuticals” (Sanofi-Aventis Deutschland GmbH, priority 2003, dated 2007).

A word on the EC50: it is the concentration that produces a half-maximal response. Lower therefore signals a more potent agent.

For the test, the target named is T1, human PPARalpha (Homo sapiens, UniProt Q07869).
T1 construct: amino acids S167–Y468; expressed in transfected cells; host or cells: HEK (human embryo kidney) cells, stably transfected with the pcDNA3 construct
T1 sequence (Q07869 167-468): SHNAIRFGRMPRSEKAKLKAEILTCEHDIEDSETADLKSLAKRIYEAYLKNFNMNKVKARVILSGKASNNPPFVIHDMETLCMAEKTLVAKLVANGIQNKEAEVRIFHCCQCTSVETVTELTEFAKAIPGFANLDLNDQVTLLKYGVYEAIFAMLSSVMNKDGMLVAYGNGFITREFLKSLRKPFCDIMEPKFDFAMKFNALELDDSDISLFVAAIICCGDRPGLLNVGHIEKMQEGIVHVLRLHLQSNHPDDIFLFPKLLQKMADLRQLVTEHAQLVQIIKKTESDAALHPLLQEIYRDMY
As to the kind of experiment: Cellular PPARalpha assay (stably transfected HEK luciferase reporter cell line). It counts as cell-based. The settings on record: PPARalpha reporter cell line (HEK, GR-GAL4-humanPPARalpha-LBD). The method, then:
Determination of EC50 Values of PPAR Agonists in the Cellular PPARalpha Assay
The potency of substances which bind to human PPARalpha and activate in an agonistic manner is analyzed using a stably transfected HEK cell line (HEK=human embryo kidney) which is referred to here as PPARalpha reporter cell line. It contains two genetic elements, a luciferase reporter element (pdeltaM-GAL4-Luc-Zeo) and a PPARalpha fusion protein (GR-GAL4-humanPPARalpha-LBD) which mediates expression of the luciferase reporter element depending on a PPARalpha ligand. The stably and constitutively expressed fusion protein GR-GAL4-humanPPARalpha-LBD binds in the cell nucleus of the PPARalpha reporter cell line via the GAL4 protein portion to the GAL4 DNA binding motifs 5′-upstream of the luciferase reporter element which is integrated in the genome of the cell line.
There is only little expression of the luciferase reporter gene without addition of a PPARalpha ligand if fatty acid-depleted fetal calf serum (cs-FCS) is used in the assay. PPARalpha ligands bind and activate the PPARalpha fusion protein and thereby bring about expression of the luciferase reporter gene. The luciferase which is formed can be detected by means of chemiluminescence via an appropriate substrate.
The PPARalpha reporter cell line was prepared in 2 stages. Firstly, the luciferase reporter element was constructed and stably transfected into HEK cells. For this purpose, five binding sites of the yeast transcription factor GAL4 (each 5′-CGGAGTACTGTCCTCCGAG-3′) (SEQ ID No. 1) were cloned in 5′-upstream of a 68 bp-long minimal MMTV promoter (Genbank Accession # V01175). The minimal MMTV promoter section contains a […] and a TATA element in order to enable efficient transcription by RNA polymerase II. The cloning and sequencing of the GAL4-MMTV construct took place in analogy to the description of Sambrook J. et. al. (Molecular cloning, Cold Spring Harbor Laboratory Press, 1989). Then the complete Photinus pyralis gene (Genbank Accession # M15077) was cloned in 3′-downstream of the GAL4-MMTV element. After sequencing, the luceriferase reporter element consisting of five GAL4 binding sites, MMTV promoter and luciferase gene was recloned into a plasmid which confers zeocin resistance in order to obtain the plasmid pdeltaM-GAL4-Luc-Zeo. This vector was transfected into HEK cells in accordance with the statements in Ausubel, F. M. et al. (Current protocols in molecular biology, Vol. 1–3, John Wiley & Sons, Inc., 1995).
In a second step, the PPARalpha fusion protein (GR-GAL4-humanPPARalpha-LBD) was introduced into the stable cell clone described. For this purpose, initially the cDNA coding for the N-terminal 76 amino acids of the glucocorticoid receptor (Genbank Accession # P04150) was linked to the cDNA section coding for amino acids 1–147 of the yeast transcription factor GAL4 (Genbank Accession # P04386). The cDNA of the ligand-binding domain of the human PPARalpha receptor (amino acids S167–Y468; Genbank Accession # S74349) was cloned in at the 3′-end of this GR-GAL4 construct. The fusion construct prepared in this way (GR-GAL4-humanPPARalpha-LBD) was recloned into the plasmid pcDNA3 (from Invitrogen) in order to enable constitutive expression therein by the cytomegalovirus promoter. This plasmid was linearized with a restriction endonuclease and stably transfected into the previously described cell clone containing the luciferase reporter element. The finished PPARalpha reporter cell line which contains a luciferase reporter element and constitutively expresses the PPARalpha fusion protein (GR-GAL4-human PPARalpha-LBD) was isolated by selection with zeocin (0.5 mg/ml) and G418 (0.5 mg/ml).
The activity of PPARalpha agonists is determined in a 3-day assay which is described below: […]
`Cc1cccc(CO[C@@H]2CCC[C@H](OCc3nc(-c4ccc5ccccc5c4)oc3C)C2)c1C(=O)O` [Example 1, 2-methyl-6-[(1R,3S)3-(5-methyl-2-naphthalen-2-yloxazol-4-yl-methoxy)cyclohexyloxymethyl]benzoic acid] displayed an EC50 of 0.2 nM.
The result for `Cc1cccc(CO[C@@H]2CCC[C@H](OCc3nc(-c4ccc5c(c4)OCCO5)oc3C)C2)c1C(=O)O` [Example 3] reads 0.2 nM; that for `Cc1ccc(-c2nc(CO[C@H]3CCC[C@@H](OCc4cccc(C)c4C(=O)O)C3)c(C)o2)o1` [Example 4, 2-methyl-6-{(1R,3S)-3-[5-methyl-2-(5-methylfuran-2-yl)oxazol-4-ylmethoxy]cyclohexyloxy-methyl}benzoic acid], 0.6 nM.
`COCCOc1cc(-c2nc(CO[C@H]3CCC[C@@H](OCc4cccc(C)c4C(=O)O)C3)c(C)o2)cc(C(F)(F)F)c1` [Example 10] displayed an EC50 of 0.3 nM. This EC50 lies about 2-fold lower than the previous one.
Take `Cc1ccc(-c2nc(CO[C@H]3CCC[C@@H](OCc4cccc(C)c4C(=O)O)C3)c(-c3ccccc3)o2)cc1` [Example 11, 2-methyl-6-[(1R,3S)-3-(5-phenyl-2-p-tolyloxazol-4-ylmethoxy)cyclohexyloxy-methyl]benzoic acid]: a half-maximal effect (EC50) was put at 27 nM.
The result for `COc1cccc(-c2nc(CO[C@H]3CCC[C@@H](OCc4cccc(C)c4C(=O)O)C3)c(-c3ccccc3)o2)c1` [Example 12, 2-{(1R,3S)-3-[2-(3-methoxyphenyl)-5-phenyloxazol-4-ylmethoxy]cyclohexyloxy-methyl}-6-methylbenzoic acid] reads 34 nM; that for `Cc1cccc(CO[C@@H]2CCC[C@H](OCc3coc(C4CCCCC4)n3)C2)c1C(=O)O` [Example 13, 2-[(1R,3S)-3-(2-cyclohexyloxazol-4-ylmethoxy)cyclohexyloxymethyl]-6-methylbenzoic acid], 0.06 nM.
